This assay can be described thus: viability loss in fusion assay cells – cell-based, MAGI and MAGI-HeLa co-culture, cytotoxicity control for HIV-1 fusion inhibitor project, dose response (AID 2286).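 On all read-outs here: cells exposed to compound for at least 64 h before ATP readout; 100% = median of DMSO vehicle wells with no ATP signal meaning 0%.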 To be noted: MAGI-CCR5 cells viability, CellTiter-Glo ATP luminescence; for minimum viability: measured here: MAGI minimum viability across doses. (Cellular ATP, detected with luciferase, serves as a proxy for viable cell number.)

The mark [1] stands for this setting: MAGI-HeLa co-culture viability, at 50 µM, stronger effect = lower value.
Where [2] appears, read: at 3.13 µM, stronger effect = lower value.
Setting [3] is: at 12.5 µM, stronger effect = lower value.
[4] abbreviates: at 1.56 µM, stronger effect = lower value.

Among the data in PubChem BioAssay AID2286 (Southern Research Specialized Biocontainment Screening …, 2010) are viability and minimum viability values, retold here.

The source made the active and inactive calls.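 How the source made its calls: active means minimum cell viability of 80% or lower across the dose range, counted as toxic; inactive means minimum cell viability above 80%.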

The term viability denotes a read-out of living cells in per cent, often relative to untreated cells.

For the compound `O=C(NCCc1ccccc1)c1ccc2c(=O)[nH]c3c(C(=O)NCC4CCCO4)sc(=S)n3c2c1` (stereo not drawn), the viability under setting [1] is 115%. The minimum viability (at 50 µM, stronger effect = lower value) was found to be 70.9%.

For the compound `O=C(O)c1ccc(NS(=O)(=O)c2ccc3c(c2)C2C=CCC2C(c2ccccc2F)N3)cc1` (stereo not drawn), the viability under setting [1] was found to be 111% and the viability (at 50 µM (top of the series)) was 102% (inactive). Further, the minimum viability under setting [2] worked out at 93.8%.

With `O=C(N/N=C/c1c(O)n(C2CCCCC2)c(=S)[nH]c1=O)c1ccccc1O`, under setting [1], the viability was 84.7%. Besides, for the setting “at 50 µM, stronger effect = lower value”, the minimum viability came out at 64.3%.

`O=C(CCN1C(=O)/C(=C\C=C\c2ccccc2)SC1=S)Nc1ccccc1C(=O)O`: under setting [1], the viability came out at 121%. Further, the minimum viability (at 50 µM, stronger effect = lower value) turned out to be 74.5%.

`COc1ccc(N=C2S/C(=C\c3ccc(OCC(=O)O)cc3)C(=O)N2CCc2c[nH]c3ccccc23)cc1`: the viability is 173% under setting [1] and 93.7% (inactive) (at 50 µM (top of the series)). For the same compound, the minimum viability (at 25 µM, stronger effect = lower value) is 90.8%.

Regarding `COc1cc(/C=C2\SC(=O)N(c3ccccc3Cl)C2=O)cc([N+](=O)[O-])c1O`, the viability under setting [1] amounted to 85.2%. For the same compound, the minimum viability (at 50 µM, stronger effect = lower value) came to 50%.

As for `COc1ccc(C(=O)Oc2ccc(/C=N/Nc3ccc(Cl)c(C(=O)O)c3)cc2OC)cc1`, the viability by setting is: under setting [1], 104%; (at 50 µM (top of the series)) 80.5% (inactive). Further, the minimum viability (at 50 µM, stronger effect = lower value) is 80.5%.

Turning to `CC1(C)CC(=O)C2=C(C1)c1c(ccc3ccccc13)NC2c1cc([N+](=O)[O-])cc([N+](=O)[O-])c1O` (stereo not drawn), the viability under setting [1] stood at 107%. Also, the minimum viability (at 50 µM, stronger effect = lower value) is 56%.

Take `Cc1cccc(OCC(=O)Nc2ccc(C(=O)Nc3ccccc3C(=O)O)cc2)c1C`: the viability under setting [1] is 93%. For the same compound, the minimum viability (at 50 µM, stronger effect = lower value) is 76.6%.

With `COc1cccc(C2C3=C(N=c4s/c(=C\c5ccc(OCC(=O)O)cc5)c(=O)n42)c2ccccc2CC3)c1` (stereo not drawn), the viability runs as follows: under setting [1], 103%; (at 50 µM (top of the series)) 90.2% (inactive). In addition, the minimum viability under setting [3] was determined as 85%.

For `N#Cc1c(-c2ccccc2)nc(SCC(=O)N2c3ccccc3Sc3ccccc32)[nH]c1=O`, the viability by setting is: under setting [1], 103%; (at 50 µM (top of the series)) 85.5% (inactive). Also, the minimum viability under setting [4] stood at 83.6%.

On to `Cc1cc(N2C(=O)C(O)=C(C(=O)c3ccc(C)o3)C2c2cccc(Oc3ccccc3)c2)no1` (stereo not drawn), for which the viability is 89% under setting [1] and 82.1% (inactive) (at 50 µM (top of the series)). Under “at 50 µM, stronger effect = lower value”, the minimum viability worked out at 82.1%.

In the case of `O=C(O)CSc1cc(C(=O)c2ccccc2O)cn2c(=O)c3c4c(sc3nc12)CCCC4`, the viability runs as follows: under setting [1], 114%; (at 50 µM (top of the series)) 93.2% (inactive). Also, the minimum viability under setting [3] worked out at 92.1%.

For `O=C(O)c1[nH]c2ccccc2c1C(c1cc(Cl)cc([N+](=O)[O-])c1O)c1c(C(=O)O)[nH]c2ccccc12`, the viability is, setting by setting: under setting [1], 96.1%; (at 50 µM (top of the series)) 99.1% (inactive). Moreover, the minimum viability under setting [3] stood at 93.4%.

`CCc1ccc(/C=C2\SC(=S)N(CCCC(=O)Nc3ccccc3C(=O)O)C2=O)cc1`: the viability under setting [1] came to 90.6%. The minimum viability (at 50 µM, stronger effect = lower value) amounted to 70.3%.

On to `Cc1cc(C)c2nc(N3C(=O)C(O)=C(C(=O)c4ccco4)C3c3ccco3)sc2c1` (stereo not drawn), for which the viability was 119% under setting [1] and 91.8% (inactive) (at 50 µM (top of the series)). For the same compound, the minimum viability (at 50 µM, stronger effect = lower value) stood at 91.8%.

As to `CCc1ccc(N=C2NC(=O)/C(=C/c3cc(Br)c(OCC(=O)O)c(OC)c3)S2)cc1`, the viability by setting is: under setting [1], 94.3%; (at 50 µM (top of the series)) 82.9% (inactive). Moreover, the minimum viability (at 50 µM, stronger effect = lower value) is 82.9%.

For the compound `O=C(O)c1[nH]c2ccccc2c1C(c1cc(Br)ccc1O)c1c(C(=O)O)[nH]c2ccccc12`, the viability is 82% under setting [1] and 85.4% (inactive) (at 50 µM (top of the series)). For the setting “at 50 µM, stronger effect = lower value”, the minimum viability came to 85.4%.

For the compound `COc1ccc(OC)c(/C=C2\SC(=S)N(NS(=O)(=O)c3ccc(C)cc3)C2=O)c1`, the viability was 107% under setting [1] and 101% (inactive) (at 50 µM (top of the series)). The minimum viability under setting [4] amounted to 90.5%.

Take `Cc1cc(/C=C2\C(=N)N3N=C(S(C)(=O)=O)SC3=NC2=O)c(C)n1Cc1ccccc1`: the viability under setting [1] came out at 116% and the viability (at 50 µM (top of the series)) is 110% (inactive). The minimum viability (at 25 µM, stronger effect = lower value) came out at 106%.

`C=CCOC(=O)C1=C(C)N=c2s/c(=C3\C(=O)N(CC(=O)O)c4ccccc43)c(=O)n2C1c1ccc(OC)cc1` (stereo not drawn): the viability under setting [1] amounted to 105% and the viability (at 50 µM (top of the series)) is 97.3% (inactive). The minimum viability (at 25 µM, stronger effect = lower value) came out at 85.1%.

Turning to `O=C1NN(c2ccc(Cl)c(Cl)c2)C(=O)/C1=C/c1ccc(-c2ccccc2C(=O)O)o1`, the viability is 121% under setting [1] and 105% (inactive) (at 50 µM (top of the series)). In addition, the minimum viability under setting [4] is 89.7%.

Regarding `COc1cc(/C=C2/C(=N)N3C(=NC2=O)SN=C3S(C)(=O)=O)ccc1OS(=O)(=O)c1ccccc1`, the viability runs as follows: under setting [1], 94.8%; (at 50 µM (top of the series)) 87% (inactive). The minimum viability (at 25 µM, stronger effect = lower value) was 84.7%.

Regarding `Cc1c(CCC(=O)O)c(=O)oc2c(C)c3occ(-c4ccc(Cl)cc4)c3cc12`, the viability under setting [1] is 117%. For the same compound, the minimum viability (at 25 µM, stronger effect = lower value) was determined as 64%.

Consider `Cc1cc(N2C(=O)C(O)=C(C(=O)c3cc4ccccc4o3)C2c2ccc(Cl)cc2)no1` (stereo not drawn), for which the viability under setting [1] came out at 123% and the viability (at 50 µM (top of the series)) was 83.2% (inactive). The minimum viability (at 50 µM, stronger effect = lower value) amounted to 83.2%.

Take `CC(C)S(=O)(=O)C1=NSC2=NC(=O)/C(=C\c3ccc(-c4ccccc4)o3)C(=N)N21`: the viability under setting [1] came out at 123%. Under “at 50 µM, stronger effect = lower value”, the minimum viability stood at 73.2%.

For `CC1=C(C(=O)Nc2ccccc2)C(c2ccc(Cl)cc2)n2c(s/c(=C/c3cccc(OCC(=O)O)c3)c2=O)=N1` (stereo not drawn), the viability is 127% under setting [1] and 114% (inactive) (at 50 µM (top of the series)). Under setting [2], the minimum viability amounted to 104%.

Turning to `Oc1c(Br)cc(Br)c(/C=N/n2c(-c3ccccc3)n[nH]c2=S)c1Br`, the viability is, setting by setting: under setting [1], 99.3%; (at 50 µM (top of the series)) 90.8% (inactive). For the same compound, the minimum viability (at 50 µM, stronger effect = lower value) came out at 90.8%.

Regarding `O=C1NN(c2ccccc2)C(=O)/C1=C\c1cccc(OC(=O)c2cccs2)c1`, the viability by setting is: under setting [1], 103%; (at 50 µM (top of the series)) 85.1% (inactive). Further, the minimum viability (at 50 µM, stronger effect = lower value) worked out at 85.1%.

Turning to `O=C(Nc1ccc(Br)cc1C(=O)O)c1ccc2c(c1)C(=O)N(Cc1ccccc1)C2=O`, the viability was 101% under setting [1] and 105% (inactive) (at 50 µM (top of the series)). For the same compound, the minimum viability under setting [4] stood at 82.6%.

For `O=c1oc2ccccc2c(O)c1C(c1ccc([N+](=O)[O-])cc1)c1c(O)c2ccccc2oc1=O`, the viability under setting [1] stood at 133%. Besides, the minimum viability (at 50 µM, stronger effect = lower value) amounted to 68.8%.

For the compound `CS(=O)(=O)C1=NSC2=NC(=O)/C(=C\c3cccn3-c3ccc(Cl)cc3)C(=N)N21`, the viability under setting [1] amounted to 93.6% and the viability (at 50 µM (top of the series)) was 88% (inactive). The minimum viability (at 50 µM, stronger effect = lower value) came to 88%.

On to `CCCOc1ccc(C(=O)NNC(=S)NC(=O)c2cc(-c3ccc(Cl)cc3)nc3ccccc23)cc1`, for which the viability runs as follows: under setting [1], 89.5%; (at 50 µM (top of the series)) 98% (inactive). Moreover, the minimum viability under setting [2] was 87.2%.

With `Cc1ccc(NC(=O)COc2cccc(/C=C3\SC(=S)N(CCC(=O)O)C3=O)c2)cc1Cl`, the viability under setting [1] worked out at 94%. Further, the minimum viability (at 50 µM, stronger effect = lower value) is 77%.

Regarding `COc1ccc(-c2coc3c(C)c4oc(=O)c(CCC(=O)O)c(C)c4cc23)cc1`, under setting [1], the viability came to 91.9%. For the same compound, the minimum viability (at 50 µM, stronger effect = lower value) is 47.8%.
